SMILES strings stand for the structures. In brackets after ≈: the same amount, converted by molar mass.

Here are results for 52 molecules from PubChem BioAssay AID1996.

For this series the following is noted: buffer; pH 7.4; 200.0 µM.
The term kinetic solubility denotes the concentration staying in solution when a stock, usually in DMSO, is diluted into the medium. Molecule `Cc1cc([N+](=O)[O-])cc2c1NC(=O)C2(O)N1CCCC(C)C1` (configuration not stated) registered a kinetic solubility of 28.3 µg/mL (≈ 92.7 µM).

As for `CC(C)(C)OC(=O)CN1c2cccc3cccc(c23)S1(=O)=O`, the solubility (kinetic) is 14.9 µg/mL (≈ 46.7 µM).

For `O=C(COc1ccc(Br)cc1F)NC1CC1`, the kinetic solubility was greater than 43.2 µg/mL.

For the molecule `CCCCNc1c([N+](=O)[O-])ncn1C`, the kinetic solubility was greater than 29.7 µg/mL.

Molecule `Cc1cc(C)c(C(=O)N(C)C2CCCN(Cc3ccccc3F)C2)o1` (configuration not stated) came in with a solubility (kinetic) greater than 51.7 µg/mL.

As for `CN(Cc1ccccc1)C(=O)CN(C)S(=O)(=O)c1ccc(F)cc1`, the solubility (kinetic) is greater than 52.6 µg/mL.

In the case of `O=C(Nc1ccc(F)c(F)c1)C1=COCCO1`, the kinetic solubility was determined as 35.6 µg/mL (≈ 148 µM).

Turning to `CCCCNC(=O)C(=O)NCc1ccncc1`, the solubility (kinetic) is 32.8 µg/mL (≈ 139 µM).

On to `CCOC(=O)CC(NC(=O)c1ccc(C)cc1)c1ccc(OC)cc1` (configuration not stated), for which the kinetic solubility amounted to 8.5 µg/mL (≈ 24.9 µM). This solubility kinetic lies about 3.9-fold lower than the previous one.

`Fc1cccc(Cl)c1CSC1=NCCS1` gave a kinetic solubility of 2.3 µg/mL (≈ 8.79 µM).

In turn, `O=C(CSc1n[nH]c(-c2ccc(Br)cc2)n1)N1CCOCC1` gave a kinetic solubility greater than 57.5 µg/mL.

Molecule `CCCOc1ccc(C(=O)OCCN2CCCCC2)c(O)c1.Cl` yielded a solubility (kinetic) of 49.8 µg/mL.

The molecule `O=C(NCCN1CCOCC1)c1ccc(Cl)c([N+](=O)[O-])c1` registered a solubility (kinetic) of 41.4 µg/mL (≈ 132 µM).

In the case of `COc1ccc(NC(=O)CCCc2nc3ccccc3c(=O)[nH]2)cc1Cl`, the solubility (kinetic) was 14.5 µg/mL (≈ 39 µM).

As to `COc1ccccc1NS(=O)(=O)c1cc(NC(=O)c2cccnc2)ccc1N1CCCCC1`, the solubility (kinetic) was determined as 1.3 µg/mL (≈ 2.79 µM).

`COCCNC(=O)c1cccc(NC(=O)C2=C(C)OCCS2)c1` displayed a kinetic solubility greater than 50.5 µg/mL.

In the case of `O=C(NCc1ccccc1)c1cc2ccccc2oc1=O`, the solubility (kinetic) came out at 2.7 µg/mL (≈ 9.67 µM).

With `CC1CCCCC1NC(=O)COC(=O)/C=C/c1ccco1` (configuration not stated), the kinetic solubility worked out at 22.6 µg/mL (≈ 77.6 µM).

With `Cc1ccccc1-c1nc2cc(Cl)ccc2c(=O)o1`, the solubility (kinetic) is less than 0.6 µg/mL.

`CN(CCc1ccccc1)Cc1c[nH]c2ccccc12.O=C(O)C(=O)O` showed a solubility (kinetic) greater than 53.2 µg/mL.

In turn, `CCCCOc1ccc(/C=C(\C(=O)O)c2ccc(S(=O)(=O)N3CCCC3)s2)cc1` returned a kinetic solubility greater than 65.3 µg/mL.

In the case of `O=C(NC1CCCCC1)c1cc(F)cc2c1OCOC2`, the solubility (kinetic) was 28.9 µg/mL (≈ 103 µM).

`O=C(/C=C/c1cccc(F)c1)OCC(=O)N1CCCC1` returned a kinetic solubility greater than 41.6 µg/mL.

Turning to `O=C(Nc1nccs1)c1ccc(-c2ccc(F)cc2)o1`, the solubility (kinetic) worked out at 1.5 µg/mL (≈ 5.2 µM).

Consider `COc1ccc(C(C)=O)cc1CN1C(=O)NC2(CCCC2)C1=O`, for which the kinetic solubility turned out to be 44.9 µg/mL (≈ 142 µM).

In the case of `O=C(Nc1cccc(-c2nc3ccccc3o2)c1)c1cccnc1`, the solubility (kinetic) stood at 0.3 µg/mL (≈ 0.951 µM).

Molecule `CC1CCCC(C)N1C(=O)COC(=O)c1cc(F)c(F)cc1Cl` (configuration not stated) gave a kinetic solubility greater than 51.9 µg/mL.

`CC1(C)C2([N+](=O)[O-])CN3CC1([N+](=O)[O-])CN(C2)C3c1ccc(O)c(O)c1` (configuration not stated) came in with a kinetic solubility of 3.5 µg/mL (≈ 9.61 µM).

Turning to `COC(=O)C(C)Nc1cccc(Br)c1` (configuration not stated), the kinetic solubility amounted to 21.8 µg/mL (≈ 84.5 µM).

In turn, `CCc1cc2c(SCC(=O)NC3CC3)ncnc2s1` returned a solubility (kinetic) greater than 44 µg/mL.

In the case of `COc1ccc(C(=O)N[C@H](C(=O)NCc2ccc(C)cc2)C(C)C)cc1`, the kinetic solubility is 1.1 µg/mL (≈ 3.1 µM).

For `COc1ccccc1C(=O)NC(CCSC)C(=O)NC1CC1` (configuration not stated), the solubility (kinetic) was greater than 48.4 µg/mL.

With `O=C(Nc1ccc(Cl)cn1)c1cccc(OCc2ccccc2)c1`, the kinetic solubility came to 0.7 µg/mL (≈ 2.07 µM).

On to `N#CCCN(Cc1cccnc1)C(=S)NC(=O)c1ccccc1`, for which the kinetic solubility was greater than 48.7 µg/mL.

As for `COc1ccc(-c2cn3ccccc3n2)cc1`, the solubility (kinetic) was greater than 33.6 µg/mL.

`CC(C)(C)NC(=O)C(=O)NNC(=O)c1cccc([N+](=O)[O-])c1` yielded a kinetic solubility greater than 46.2 µg/mL.

For `COC(=O)c1ccc(S(=O)(=O)N2CCN(C)CC2)n1C`, the solubility (kinetic) was greater than 45.2 µg/mL.

`CCCN(CCC)S(=O)(=O)c1cccc(-c2csc(C)n2)c1` came in with a kinetic solubility of 8 µg/mL (≈ 23.6 µM).

As for `CCOP(=O)(OCC)C(O)c1ccc(N(C)C)cc1` (configuration not stated), the solubility (kinetic) is greater than 43.1 µg/mL.

`COc1cc(CNC(=O)c2cnc(C)cn2)cc(OC)c1` yielded a kinetic solubility greater than 43.1 µg/mL.

`O=C(CSc1ccccc1C(=O)O)NC1CCCCCC1` had a kinetic solubility greater than 46.1 µg/mL.

For the molecule `COc1ccccc1OCCCCn1c(C(C)O)nc2ccccc21` (configuration not stated), the kinetic solubility worked out at 49.9 µg/mL (≈ 147 µM).

`Cc1ccc(C2=NCC(=O)Nc3ccc(Br)cc32)cc1` yielded a kinetic solubility of 42.1 µg/mL (≈ 128 µM). The solubility kinetic values of the last two molecules are within 1.5-fold of each other.

`COc1c(C)cc(Br)cc1C(=O)Nc1ccccc1C` yielded a solubility (kinetic) of less than 0.7 µg/mL.

In turn, `CCSc1ccccc1C(=O)N=C1NC(=O)CC2C(=O)NCCN12` (configuration not stated) returned a solubility (kinetic) of 16.9 µg/mL (≈ 48.8 µM).

With `O=C(COC(=O)c1cccnc1Cl)NC(=O)NC1CCCCC1`, the solubility (kinetic) was greater than 51 µg/mL.

With `Oc1ccc(Nc2nc(-c3cccnc3)cs2)cc1`, the solubility (kinetic) came out at 0.8 µg/mL (≈ 2.97 µM).

For `COc1ccc(-c2csc(N3CCSCC3)n2)cc1`, the kinetic solubility turned out to be 0.3 µg/mL (≈ 1.03 µM).

In the case of `CN1CCN(c2ccc([N+](=O)[O-])cc2NC(=O)c2ccco2)CC1`, the solubility (kinetic) was determined as 20.8 µg/mL (≈ 63 µM).

The molecule `CC(=O)NCCC(=O)Nc1nc(-c2c[nH]c3ccccc23)cs1` yielded a solubility (kinetic) of 42.9 µg/mL (≈ 131 µM).

With `COc1ccc(CNCC(O)(c2ccccc2)c2ccccc2)cc1`, the solubility (kinetic) is greater than 50 µg/mL.

`CCN1CCN(C(=O)CN2C(=O)COc3ccc(C)cc32)CC1`: the kinetic solubility is greater than 47.6 µg/mL.
